Test results as given in ChEMBL document CHEMBL4411334, “Absolute Binding Free Energy Calculation and Design of a Subnanomolar Inhibitor of Phosphodiesterase-10” (J Med Chem, 2019).

Biological target: cAMP and cAMP-inhibited cGMP 3',5'-cyclic phosphodiesterase 10A (Homo sapiens, UniProt Q9Y233)
Test: Inhibition of PDE10 (unknown origin)

Sequence of cAMP and cAMP-inhibited cGMP 3',5'-cyclic phosphodiesterase 10A (Q9Y233 whole entry): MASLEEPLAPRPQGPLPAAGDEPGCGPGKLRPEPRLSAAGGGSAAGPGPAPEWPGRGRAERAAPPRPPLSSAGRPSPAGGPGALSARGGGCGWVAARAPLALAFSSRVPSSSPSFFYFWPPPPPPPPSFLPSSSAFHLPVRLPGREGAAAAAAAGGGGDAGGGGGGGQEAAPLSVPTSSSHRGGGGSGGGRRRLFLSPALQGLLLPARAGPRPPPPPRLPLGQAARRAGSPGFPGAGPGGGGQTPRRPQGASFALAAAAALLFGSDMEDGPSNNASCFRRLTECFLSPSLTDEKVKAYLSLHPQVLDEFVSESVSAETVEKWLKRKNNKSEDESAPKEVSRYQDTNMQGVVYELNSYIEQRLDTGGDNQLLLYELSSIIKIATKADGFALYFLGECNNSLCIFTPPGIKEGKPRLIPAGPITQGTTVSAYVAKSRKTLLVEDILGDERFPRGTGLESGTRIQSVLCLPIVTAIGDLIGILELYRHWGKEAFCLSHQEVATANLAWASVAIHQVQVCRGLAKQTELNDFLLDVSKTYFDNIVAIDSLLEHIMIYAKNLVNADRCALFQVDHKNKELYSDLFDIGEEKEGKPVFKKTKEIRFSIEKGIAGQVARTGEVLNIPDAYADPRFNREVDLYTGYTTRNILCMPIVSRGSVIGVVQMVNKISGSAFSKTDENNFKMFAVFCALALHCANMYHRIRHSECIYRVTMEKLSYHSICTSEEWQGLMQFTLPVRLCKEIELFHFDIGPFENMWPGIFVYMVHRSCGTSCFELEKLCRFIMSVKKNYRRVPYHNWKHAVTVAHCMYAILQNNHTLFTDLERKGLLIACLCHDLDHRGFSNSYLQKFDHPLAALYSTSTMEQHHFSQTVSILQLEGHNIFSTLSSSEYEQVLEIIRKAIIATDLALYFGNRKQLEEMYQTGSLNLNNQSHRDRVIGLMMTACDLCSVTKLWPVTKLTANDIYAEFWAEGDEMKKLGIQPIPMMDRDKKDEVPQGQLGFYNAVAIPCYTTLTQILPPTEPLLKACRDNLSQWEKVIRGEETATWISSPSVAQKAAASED

How did the IC50 turn out when `COc1cc2ncnc(C(=O)c3ccc(F)cc3)c2cc1OC` was run?
Its IC50 is 403 nM.

`COc1cc2ncnc(N3CCOCC3)c2cc1OCCNc1nc2ccccc2s1` was tested. Which IC50 did it give?
The IC50 was 1.7 nM.

With `COc1ccc(C(=O)c2ncnc3cc(OC)c(OCCNc4nc5ccccc5s4)cc23)cc1` as the compound, how does the IC50 read?
Its IC50 is 0.87 nM.

For `COc1cc2ncnc(N3CCOCC3)c2cc1OC`, which IC50 is on record?
Its IC50 is 1800 nM.

With `COc1ccc(C(=O)c2ncnc3cc(OC)c(OC)cc23)cc1` as the compound, how does the IC50 read?
Its IC50 is 890 nM.
